In patent US7951816B2, “Compound containing basic group and use thereof” (Ono Pharmaceutical Co., Ltd., priority 2004, dated 2011):

Legend:
[1] = molecular target: T1, CXCR4 (Homo sapiens, UniProt P61073); test: Study for inhibition of binding human SDF-1 to CEM cells (125I-SDF-1); settings: 125I-SDF-1 binding to CEM cells
T1 construct: a human T cell strain in which CXCR4 is known to be expressed; endogenous in cells; host or cells: CEM cells (human T cell line), whole cells
Excerpt: Specifically, as a system of screening a compound that inhibits the binding between SDF-1 and CXCR4, for example a system of measuring the binding between iodine-labeled SDF-1 and a human T cell strain in which CXCR4 is known to be expressed is operable. The identical idea is possible since macrophage (R5) HIV and RANTES, MIP-1α, and MIP-1β all bind to CCR5.
Study for Inhibition of Binding Human SDF-1 to CEM Cells
To human T cell strain CEM cells in a binding buffer (containing HEPES and BSA), the test compound and ^125I-SDF-1 (NEN) were added and the mixture was incubated at 4° C. for 60 minutes. The reacted CEM cells were rapidly filtrated with a GF/B membrane filter plate (Packard) to adsorb. The plate was washed with PBS three times and then dried. Microscint+20 (Packard) was added thereto. An amount of the radioactivity bound to the CEM cells was measured using Top Count (Packard) and inhibition (%) of the test compound was calculated according to the following equation: Inhibition={(Et−Ea)/(Et−Ec)}×100
Et: amount of radioactivity when the test compound is not added,
Ec: amount of radioactivity when non-radioactive SDF-1 (Pepro Tech) is added in an amount of 1000 times as much as ^125I-SDF-1 as a test compound, and
Ea: amount of radioactivity when the test compound is added.

[2] = Influence on blood pressure and heart rate in urethane-anesthetized rat, intravenous cumulative dosing; type: in vivo
Excerpt: Measuring of Influence of a Compound of the Present Invention on Blood Pressure and Heart Rate
A rat was anesthetized with urethane (1.2 g/kg subcutaneous administration). After neck midline dissection, a catheter for measuring blood pressure was inserted into a right common carotid artery. Then, after dissecting inguinal region, a catheter for chemical injection was inserted into a femoral vein and fixed. A catheter for measurement of blood pressure was connected to a pressure transducer and then the pressure waveform was recorded on a thermal writing pen recorder through an amplifier for strain compression (AP-641G (manufactured by NIHON KOHDEN CORPORATION)). In this case, regarding a heart rate, a value through an cardiotachometer (AT-601G (manufactured by NIHON KOHDEN CORPORATION)) using the pressure waveform obtained from the amplifier for strain compression as a trigger was recorded on a thermal writing pen recorder. The test compound was dissolved in a 10% solubilizing agent/physiological saline solution (volume ratio of polyoxyethylene hydroxystearate:propylene glycol:physiological saline=7:3:190) so as to adjust the concentration to 0.1, 0.3, 1, 3 or 10 mg/mL to prepare solutions. Each solution was intravenous administered at 1 mL/Kg through the […] over about 10 seconds. Accumulative administration of stepwise increasing of a dosage was carried out to an individual.

T1 sequence (P61073 whole entry): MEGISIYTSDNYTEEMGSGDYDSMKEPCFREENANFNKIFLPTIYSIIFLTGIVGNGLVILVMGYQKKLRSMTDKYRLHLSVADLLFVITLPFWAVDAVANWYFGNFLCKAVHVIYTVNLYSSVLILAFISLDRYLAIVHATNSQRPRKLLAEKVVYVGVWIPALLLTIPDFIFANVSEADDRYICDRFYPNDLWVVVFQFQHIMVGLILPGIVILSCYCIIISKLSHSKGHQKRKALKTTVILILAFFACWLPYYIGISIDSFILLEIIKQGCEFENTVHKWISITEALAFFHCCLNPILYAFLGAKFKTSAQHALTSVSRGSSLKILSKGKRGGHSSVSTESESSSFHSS

SMILES: CCCN(CCC)CCCCNCc1ccc(C(=O)N(Cc2ncc[nH]2)Cc2ncc[nH]2)cc1 [Compound 10, 4-({[4-(dipropylamino)butyl]amino}methyl)-N,N-bis(1H-imidazol-2-ylmethyl)benzamide]
- IC50 [1]: 27 nM

SMILES: CCCN(CCC)CCCCNCc1ccc(CN(Cc2ncc[nH]2)C(=O)c2ncc[nH]2)cc1 [Compound 19, N-[4-({[4-(dipropylamino)butyl]amino}methyl)benzyl]-N-(1H-imidazol-2-ylmethyl)-1H-imidazole-2-carboxamide]
- effect of decreasing blood pressure ([2]; 3 mg/kg or less): not recognized
- rate of increase in the heart rate ([2]; 10 mg/kg): 2%
- influence on the heart rate ([2]; low dosage): no influence on the heart rate
